Article PMC9866588, “Novel 7-Chloro-4-aminoquinoline-benzimidazole Hybrids as Inhibitors of Cancer Cells Growth: Synthesis, Antiproliferative Activity, in Silico ADME Predictions, and Docking” (Molecules, 2023)

Experiments:
[1] = test system: CaCo-2 (human colorectal adenocarcinoma) cells; experiment: MTT antiproliferative assay, CaCo-2; format: cell-based; settings: 72 h, mean ± SD of three independent experiments
Protocol: (§1) The growth inhibition activity was assessed according to the slightly modified procedure performed at the National Cancer Institute, Developmental Therapeutics Program.
(§2) The examined compounds were dissolved in DMSO (1 × 10^−2 M). The experiments were carried out on seven human tumor cell lines and a normal cell line. The following cell lines were used: HeLa (human cervical adenocarcinoma; purchased from ATCC), CaCo-2 (human colorectal adenocarcinoma), MCF-7 (human breast adenocarcinoma), CCRF-CEM (human acute lymphoblastic leukemia), Hut78 (T-cell lymphoma), THP-1 (acute monocytic leukemia), Burkitt lymphoma (Raji), and MDCK1 (Madine–Darby canine kidney). The MDCK1 cells were used between 24 and 26 passages.
(§3) The adherent cells were cultured in Dulbecco’s modified Eagle medium—DMEM (Gibco, Termo Fisher Scientific Inc., Leicestershire, England, UK), supplemented with 10% heat-inactivated fetal bovine serum (FBS, Gibco, Termo Fisher Scientific Inc., Leicestershire, England, UK), 2 mM glutamine, and 100U/0.1mg penicillin/streptomycin. The cells in suspension were cultured in RPMI 1640 (Gibco, Termo Fisher Scientific Inc., Leicestershire, England, UK) medium, supplemented with 10% FBS (Gibco, Termo Fisher Scientific Inc., Leicestershire, England, UK), 2 mM glutamine, 1 mM sodium pyruvate, and 10 mM HEPES. The cells were grown in a humidified atmosphere under the conditions of 37 °C/5% of CO2 gas in the CO2 incubator (IGO 150 CELLlife^TM, JOUAN, Thermo Fisher Scientific, Waltham, MA, USA).
(§4) The adherent cells (HeLa, CaCo-2, MCF-7, and MDCK-1) were plated in 96-well flat bottom plates (Greiner, Frickenhausen, Austria) at a concentration of 2 × 10^4 cells/mL. The suspension cells (Raji, THP-1, CCRF-CEM and Hut78) were plated in 96-well microtiter plates (Sarstead, Newton, NC, USA) at a concentration of 1 × 10^5 cells/mL. Twenty-four hours later, the cells were treated with test agents in […] and incubated for a further 72 h. The working dilutions were freshly prepared on the day of testing. The solvent was also tested for eventual inhibitory activity by adjusting its concentration to be the same as in the working concentrations. After 72 h of incubation, the cell growth rate was evaluated by performing the MTT assay, which detects dehydrogenase activity in viable cells. For this purpose, upon completion of the incubation period, the growth medium was discarded and 50 μL of MTT was added to each well at a concentration of 5 mg/mL. After four hours of incubation at 37 °C, the water insoluble MTT-formazan crystals were dissolved in 150 μL of dimethyl-sulfoxide (DMSO) for the adherent cells and in 10% SDS with 0.01 mol/L HCl for the cells grown in suspension. The absorbance (OD, optical density) was measured on a microplate reader (iMark, BIO RAD, Hercules, CA, USA) at 595 nm.
(§5) The percentage of live cells was calculated as follows: % = OD (sample) − OD (background)/OD (control) − OD (background) × 100.
(§6) The optical density (OD) of the background for the adherent cells is the OD of the MTT solution and DMSO; the OD (background) for the suspension cells is the OD of the culture medium with MTT and 10% SDS with 0.01 mol/L HCl; the OD (control) is the OD of the cells grown without the tested compounds.
(§7) The calculation of the GI50 value curves and QC analysis was performed using the Excel tools and GraphPadPrism software (La Jolla, CA, USA), v. 5.03. Briefly, individual concentration effect curves are generated by plotting the logarithm of the concentration of the tested compounds (X) vs. the corresponding percent inhibition values (Y) using the least squares fit. The best-fit GI50 values are calculated using log (inhibitor) versus normalized response—variable slope equation, where Y Ľ 100/(1 ţ 10 ((LogIC50 _ X) × HillSlope)). The QC criteria parameters (Z0, S:B, R2, HillSlope) were checked for every GI50 curve.

THP-1 cells = experiment: Flow cytometry analysis of cell cycle, THP-1; format: cell-based, human; settings: THP-1, 5 μM, 24 h
Protocol: (§8) To analyze the effects of the selected compounds (5d, 8d, and 12d) on the cell cycle of the HuT78 and THP-1 cells, the cells were seeded in 6-well plates (5 × 10^5 cells per well) and treated for 24 h with the selected compounds 5d and 12d (5 μM). The cells were then collected and fixed in cold 70% ethanol. The fixed samples were stained with 15 µg/mL of propidium iodide (PI) at room temperature and analyzed by flow cytometry (FACS Canto II, BD Biosciences). The results were analyzed using FlowLogic software.
(§9) One-way ANOVA analysis of variance was performed in the MedCalc statistical program for the analysis of the cell cycle. p-values of less than 0.05 were considered to be statistically significant.

[2] = test system: HeLa (human cervical adenocarcinoma) cells; experiment: MTT antiproliferative assay, HeLa; format: cell-based; settings: 72 h, mean ± SD of three independent experiments
Protocol: as §1, §2, §3, §4, §5, §6, §7

[3] = test system: Hut78 (T-cell lymphoma) cells; experiment: MTT antiproliferative assay, HuT78; format: cell-based, human
Protocol: as §1, §2, §3, §4, §5, §6, §7

[4] = test system: normal (MDCK1) and tumor cell lines; experiment: MTT antiproliferative assay, ranges stated over several cell lines; format: cell-based; settings: MDCK1; range over tumor cell lines; read-out: GI50 range, tumor cell lines
Protocol: as §1, §2, §3, §4, §5, §6, §7

[5] = as above; format: cell-based; settings: human (tumor cell lines) and dog (MDCK1); abstract, range over cell lines; read-out: GI50 range (strong cytotoxic activity)
Protocol: as §1, §2, §3, §4, §5, §6, §7

[6] = test system: CCRF-CEM (human acute lymphoblastic leukemia) cells; experiment: MTT antiproliferative assay, CCRF-CEM; format: cell-based; settings: Homo sapiens, CCRF-CEM; 72 h, MTT, mean ± SD of three independent experiments
Protocol: as §1, §2, §3, §4, §5, §6, §7

[7] = test system: THP-1 (acute monocytic leukemia) cells; experiment: MTT antiproliferative assay, THP-1; format: cell-based, human
Protocol: as §1, §2, §3, §4, §5, §6, §7

[8] = test system: MCF-7 (human breast adenocarcinoma) cells; experiment: MTT antiproliferative assay, MCF-7; format: cell-based; settings: MCF7, 72 h, mean ± SD of three independent experiments
Protocol: as §1, §2, §3, §4, §5, §6, §7

[9] = test system: Raji (Burkitt lymphoma) cells; experiment: MTT antiproliferative assay, Raji; format: cell-based, human; settings: Homo sapiens, Raji; 72 h, MTT, mean ± SD of three independent experiments
Protocol: as §1, §2, §3, §4, §5, §6, §7

[10] = test system: MDCK1 (Madine–Darby canine kidney) cells; experiment: MTT antiproliferative assay, MDCK1; format: cell-based; settings: mean ± SD of three independent experiments
Protocol: as §1, §2, §3, §4, §5, §6, §7

HuT78 cells = experiment: Flow cytometry analysis of cell cycle, HuT78; format: cell-based, human; settings: HuT78, 5 μM, 24 h
Protocol: as §8, §9

What does the source list for Clc1ccc2c(Nc3cccc(-c4nc5ccccc5[nH]4)c3)ccnc2c1 [Compound 5d, N-(3-(1H-benzo[d]imidazol-2-yl)phenyl)-7-chloroquinolin-4-amine]?
GI50 [1]: 1 ± 0.1 µM; proportion of polyploid giant cancer cells (THP-1 cells): increased proportion; decrease in G0/G1 phase (THP-1 cells; vs control): 4.5 times; increase in G2/M phase (THP-1 cells; vs control): 62.8%; increase of cells in subG0/G1 phase (THP-1 cells; vs control): 2.9 times; GI50 [2]: 0.7 ± 0.1 µM; GI50 ([3]; Homo sapiens, HuT78, 72 h, MTT, mean ± SD of three independent experiments): 0.4 ± 0.3 µM; tumor selectivity index (SI) HuT78 ([3]; with respect to MDCK1 cells): 51; GI50 [4]: 0.4 to 15.6 µM; GI50 at 72 h [5]: 0.4 to 8 µM; GI50 [6]: 8.2 ± 6.2 µM; GI50 ([7]; Homo sapiens, THP-1, 72 h, MTT, mean ± SD of three independent experiments, read-out: GI50 THP1): 0.6 ± 0.3 µM; tumor selectivity index (SI) THP1 ([7]; with respect to MDCK1 cells): 34; GI50 [8]: 33.6 ± 8.3 µM; GI50 [9]: 4.3 ± 1.2 µM; GI50 ([10]; 72 h): 20.4 ± 2.8 µM; GI50 ([10]; Canis lupus familiaris, MDCK1, 72 h): 11.4 to 20.4 µM; proportion of polyploid giant cancer cells (HuT78 cells): increased proportion; decrease in G0/G1 phase (HuT78 cells; vs control): 5 times; increase in G2/M phase (HuT78 cells; vs control): 2 times; increase of cells in subG0/G1 phase (HuT78 cells; vs control): 13 times
